Laboratory results as given in publication PMC7316778 (Nature Communications, 2020).
pIC50: −log10 of the molar value. “And” between values parts separate entries of the source, which are not always exact repeats. Equal entries are not always repeated. Where two headings read alike, the source gives them in different places.

Columns and labels:
[1] = target: MKNK2 (MNK2) (Homo sapiens, UniProt Q9HBH9); assay: SelectScreen kinase assay
Protocol: (§1) Selectivity profiling assays were performed by the Invitrogen SelectScreen™ Services. […] The concentration of ATP was selected to be equal to the KM, unless indicated otherwise.

[2] = system: FLT3; assay: SelectScreen kinase assay; conditions: IC50 on that kinase divided by IC50 on FES^S700C
Protocol: as §1

[3] = target: FLT3 (Homo sapiens, UniProt P36888); assay: SelectScreen kinase assay
Chain of FLT3 (Homo sapiens, UniProt P36888) (P36888 27-993, species assumed): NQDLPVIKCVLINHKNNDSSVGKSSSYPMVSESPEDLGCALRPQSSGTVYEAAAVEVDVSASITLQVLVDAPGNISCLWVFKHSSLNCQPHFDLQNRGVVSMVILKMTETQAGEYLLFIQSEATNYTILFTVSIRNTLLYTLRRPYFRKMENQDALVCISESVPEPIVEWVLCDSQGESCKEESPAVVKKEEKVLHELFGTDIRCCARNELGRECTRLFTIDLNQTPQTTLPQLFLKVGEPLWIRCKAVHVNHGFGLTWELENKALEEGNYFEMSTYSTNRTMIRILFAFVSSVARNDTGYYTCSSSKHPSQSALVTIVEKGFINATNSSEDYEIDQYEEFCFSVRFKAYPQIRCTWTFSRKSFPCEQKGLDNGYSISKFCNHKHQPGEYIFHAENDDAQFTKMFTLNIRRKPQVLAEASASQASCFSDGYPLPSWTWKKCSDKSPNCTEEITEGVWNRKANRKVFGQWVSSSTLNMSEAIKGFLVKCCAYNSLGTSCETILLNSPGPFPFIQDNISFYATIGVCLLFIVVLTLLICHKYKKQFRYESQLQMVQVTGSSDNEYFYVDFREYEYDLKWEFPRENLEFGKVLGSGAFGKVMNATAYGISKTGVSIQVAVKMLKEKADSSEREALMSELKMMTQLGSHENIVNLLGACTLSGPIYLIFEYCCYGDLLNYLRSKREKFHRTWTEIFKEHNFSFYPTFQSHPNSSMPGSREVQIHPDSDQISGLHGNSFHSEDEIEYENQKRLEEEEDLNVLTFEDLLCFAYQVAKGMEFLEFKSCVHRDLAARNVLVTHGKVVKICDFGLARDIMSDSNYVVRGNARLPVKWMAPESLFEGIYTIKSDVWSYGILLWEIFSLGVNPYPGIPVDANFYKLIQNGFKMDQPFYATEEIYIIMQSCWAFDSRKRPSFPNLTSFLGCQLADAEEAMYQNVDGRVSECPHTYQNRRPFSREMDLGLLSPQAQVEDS
Protocol: as §1

[4] = target: PIK3C2B (PI3K-C2 beta) (Homo sapiens, UniProt O00750); assay: SelectScreen kinase assay
Protocol: as §1

[5] = target: EPHB1 (Homo sapiens, UniProt P54762); assay: SelectScreen kinase assay
Chain of EPHB1 (P54762 18-984): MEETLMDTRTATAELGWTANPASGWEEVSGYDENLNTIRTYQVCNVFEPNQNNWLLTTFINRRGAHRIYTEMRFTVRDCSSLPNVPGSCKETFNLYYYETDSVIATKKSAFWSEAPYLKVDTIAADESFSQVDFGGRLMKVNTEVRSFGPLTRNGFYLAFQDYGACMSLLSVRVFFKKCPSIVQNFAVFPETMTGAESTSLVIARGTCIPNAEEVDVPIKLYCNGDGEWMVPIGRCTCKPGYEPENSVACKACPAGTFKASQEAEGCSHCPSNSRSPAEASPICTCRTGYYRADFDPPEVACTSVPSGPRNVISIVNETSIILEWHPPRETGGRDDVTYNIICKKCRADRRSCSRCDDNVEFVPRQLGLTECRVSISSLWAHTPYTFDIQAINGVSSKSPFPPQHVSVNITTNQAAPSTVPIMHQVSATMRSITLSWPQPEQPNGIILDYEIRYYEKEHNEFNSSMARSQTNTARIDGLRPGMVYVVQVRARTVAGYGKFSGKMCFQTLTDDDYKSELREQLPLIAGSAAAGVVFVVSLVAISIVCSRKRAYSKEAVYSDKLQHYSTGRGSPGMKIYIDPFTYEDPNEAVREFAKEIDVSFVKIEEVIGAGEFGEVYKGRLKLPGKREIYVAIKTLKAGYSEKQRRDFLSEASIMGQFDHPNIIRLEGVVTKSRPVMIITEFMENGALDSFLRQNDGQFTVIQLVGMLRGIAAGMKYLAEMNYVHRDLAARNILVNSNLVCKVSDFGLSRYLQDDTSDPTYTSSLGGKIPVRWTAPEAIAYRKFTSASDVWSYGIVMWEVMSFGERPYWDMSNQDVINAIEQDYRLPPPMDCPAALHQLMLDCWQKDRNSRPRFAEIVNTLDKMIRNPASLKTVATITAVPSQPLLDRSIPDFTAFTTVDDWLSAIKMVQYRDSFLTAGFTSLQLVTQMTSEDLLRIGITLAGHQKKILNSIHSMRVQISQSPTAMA
Protocol: as §1

[6] = target: PIK3C3 (hVPS34) (Homo sapiens, UniProt Q8NEB9); assay: SelectScreen kinase assay
Protocol: as §1

[7] = target: FES^S700C (Homo sapiens, UniProt P07332, S700C); assay: In situ two-step labeling of transfected HEK293T cells (click chemistry); assay type: cell-based; set-up: expressed in transfected cells; host or cells: HEK293T (transient, PEI)
Chain of FES^S700C (P07332 whole entry S700C): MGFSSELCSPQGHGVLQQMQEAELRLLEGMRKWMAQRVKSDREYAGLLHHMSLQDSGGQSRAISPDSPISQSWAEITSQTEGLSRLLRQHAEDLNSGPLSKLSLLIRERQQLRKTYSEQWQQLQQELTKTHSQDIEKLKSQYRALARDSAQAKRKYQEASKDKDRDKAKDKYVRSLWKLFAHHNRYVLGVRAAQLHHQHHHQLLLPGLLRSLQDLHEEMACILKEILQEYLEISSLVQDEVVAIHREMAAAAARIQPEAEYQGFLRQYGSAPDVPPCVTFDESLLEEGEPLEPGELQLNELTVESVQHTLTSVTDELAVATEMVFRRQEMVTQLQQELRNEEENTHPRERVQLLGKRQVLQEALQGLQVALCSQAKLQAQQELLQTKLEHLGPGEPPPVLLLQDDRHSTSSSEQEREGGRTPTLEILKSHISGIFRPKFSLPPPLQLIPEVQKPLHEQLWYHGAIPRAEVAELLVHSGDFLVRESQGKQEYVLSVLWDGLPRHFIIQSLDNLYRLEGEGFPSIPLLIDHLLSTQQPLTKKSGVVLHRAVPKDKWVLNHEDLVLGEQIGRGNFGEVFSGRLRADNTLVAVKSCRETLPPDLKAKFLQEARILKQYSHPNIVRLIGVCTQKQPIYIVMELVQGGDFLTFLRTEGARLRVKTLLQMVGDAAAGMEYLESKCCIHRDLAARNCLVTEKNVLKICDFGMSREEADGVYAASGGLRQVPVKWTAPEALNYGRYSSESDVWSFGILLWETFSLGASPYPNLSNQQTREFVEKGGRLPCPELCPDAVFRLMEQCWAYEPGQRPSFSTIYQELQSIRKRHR

[8] = target: T1, AURKA (Aurora A) (Homo sapiens, UniProt O14965); assay: SelectScreen kinase assay
T1 sequence (O14965 1-403): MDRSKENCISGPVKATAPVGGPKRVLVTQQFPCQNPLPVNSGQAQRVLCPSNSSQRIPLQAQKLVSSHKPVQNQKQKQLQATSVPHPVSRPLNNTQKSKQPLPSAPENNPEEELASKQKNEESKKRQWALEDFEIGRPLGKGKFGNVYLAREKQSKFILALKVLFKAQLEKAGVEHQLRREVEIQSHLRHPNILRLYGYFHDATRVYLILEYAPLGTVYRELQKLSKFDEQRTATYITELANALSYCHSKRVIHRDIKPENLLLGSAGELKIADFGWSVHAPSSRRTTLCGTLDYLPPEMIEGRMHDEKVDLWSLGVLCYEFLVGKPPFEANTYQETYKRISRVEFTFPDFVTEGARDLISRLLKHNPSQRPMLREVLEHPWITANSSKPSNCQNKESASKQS
Protocol: as §1

[9] = target: MAP3K9 (MLK1) (Homo sapiens, UniProt P80192); assay: SelectScreen kinase assay
Protocol: as §1

[10] = target: CAMK1 (CaMK1) (Homo sapiens, UniProt Q14012); assay: SelectScreen kinase assay; conditions: 1 h, 1 μM WEL028, 1 h preincubation
Protocol: as §1

[11] = target: ACVR2A (Homo sapiens, UniProt P27037); assay: SelectScreen kinase assay
Chain of ACVR2A (P27037 20-513): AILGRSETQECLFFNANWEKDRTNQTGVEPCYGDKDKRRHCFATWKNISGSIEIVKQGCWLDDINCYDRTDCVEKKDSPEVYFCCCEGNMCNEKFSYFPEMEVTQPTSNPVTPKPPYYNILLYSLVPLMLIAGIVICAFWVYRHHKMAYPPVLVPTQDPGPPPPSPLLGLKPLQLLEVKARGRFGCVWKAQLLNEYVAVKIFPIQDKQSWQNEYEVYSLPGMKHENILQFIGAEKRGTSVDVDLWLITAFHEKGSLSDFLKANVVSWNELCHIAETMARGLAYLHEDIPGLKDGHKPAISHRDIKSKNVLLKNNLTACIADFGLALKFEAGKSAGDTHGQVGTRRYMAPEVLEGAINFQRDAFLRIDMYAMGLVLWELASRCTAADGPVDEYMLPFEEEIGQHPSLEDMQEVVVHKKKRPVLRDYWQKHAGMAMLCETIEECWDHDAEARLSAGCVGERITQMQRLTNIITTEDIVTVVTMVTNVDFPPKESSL
Protocol: as §1

[12] = target: NIM1K (Homo sapiens, UniProt Q8IY84); assay: SelectScreen kinase assay
Protocol: as §1

[13] = target: T2, MAP3K7/MAP3K7IP1 (TAK1-TAB1) (Homo sapiens, UniProt O43318); assay: SelectScreen kinase assay
T2 sequence (O43318 1-303 limits assumed): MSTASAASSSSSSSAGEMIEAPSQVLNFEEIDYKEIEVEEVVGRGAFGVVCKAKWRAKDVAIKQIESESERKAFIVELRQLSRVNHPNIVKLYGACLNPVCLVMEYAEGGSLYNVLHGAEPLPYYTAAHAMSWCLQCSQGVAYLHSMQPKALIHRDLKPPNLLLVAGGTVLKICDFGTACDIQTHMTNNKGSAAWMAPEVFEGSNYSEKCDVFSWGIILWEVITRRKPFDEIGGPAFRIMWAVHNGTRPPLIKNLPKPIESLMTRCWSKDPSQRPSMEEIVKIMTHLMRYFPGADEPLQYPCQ
T2 sequence (Q15750 437-504 partner limits assumed): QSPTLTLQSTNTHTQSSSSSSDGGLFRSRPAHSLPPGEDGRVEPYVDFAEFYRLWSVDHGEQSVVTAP
Protocol: as §1

[14] = target: SIK1 (Homo sapiens, UniProt P57059); assay: SelectScreen kinase assay
Chain of SIK1 (P57059 whole entry): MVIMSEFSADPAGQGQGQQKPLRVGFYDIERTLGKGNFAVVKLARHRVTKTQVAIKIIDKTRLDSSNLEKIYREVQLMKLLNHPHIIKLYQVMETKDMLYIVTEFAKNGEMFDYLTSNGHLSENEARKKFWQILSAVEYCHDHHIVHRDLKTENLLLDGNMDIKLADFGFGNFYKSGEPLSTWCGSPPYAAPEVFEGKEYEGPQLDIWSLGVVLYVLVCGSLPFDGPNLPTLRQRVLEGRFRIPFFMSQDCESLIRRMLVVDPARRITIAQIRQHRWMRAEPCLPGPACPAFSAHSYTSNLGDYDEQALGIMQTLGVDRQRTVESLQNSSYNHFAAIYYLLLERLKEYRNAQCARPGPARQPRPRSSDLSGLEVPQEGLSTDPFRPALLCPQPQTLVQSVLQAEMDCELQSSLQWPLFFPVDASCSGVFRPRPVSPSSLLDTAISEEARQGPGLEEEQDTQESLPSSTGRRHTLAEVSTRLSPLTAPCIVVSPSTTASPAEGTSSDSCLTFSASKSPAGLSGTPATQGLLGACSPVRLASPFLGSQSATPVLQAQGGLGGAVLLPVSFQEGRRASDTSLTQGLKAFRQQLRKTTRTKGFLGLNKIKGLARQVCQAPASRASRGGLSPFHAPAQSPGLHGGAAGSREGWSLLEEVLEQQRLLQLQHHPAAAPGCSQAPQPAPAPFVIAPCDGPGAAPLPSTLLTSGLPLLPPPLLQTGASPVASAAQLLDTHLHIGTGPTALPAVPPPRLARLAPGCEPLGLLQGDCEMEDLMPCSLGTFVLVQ
Protocol: as §1

[15] = target: MAPK14 (p38 alpha) (Homo sapiens, UniProt Q16539); assay: SelectScreen kinase assay
Protocol: as §1

[16] = target: AKT3 (PKB gamma) (Homo sapiens, UniProt Q9Y243); assay: SelectScreen kinase assay; conditions: for Inhibition at 1 µM (%): AKT3 (PKB gamma), ZLYTE, ATP Km app
Chain of AKT3 (PKB gamma) (Q9Y243 whole entry): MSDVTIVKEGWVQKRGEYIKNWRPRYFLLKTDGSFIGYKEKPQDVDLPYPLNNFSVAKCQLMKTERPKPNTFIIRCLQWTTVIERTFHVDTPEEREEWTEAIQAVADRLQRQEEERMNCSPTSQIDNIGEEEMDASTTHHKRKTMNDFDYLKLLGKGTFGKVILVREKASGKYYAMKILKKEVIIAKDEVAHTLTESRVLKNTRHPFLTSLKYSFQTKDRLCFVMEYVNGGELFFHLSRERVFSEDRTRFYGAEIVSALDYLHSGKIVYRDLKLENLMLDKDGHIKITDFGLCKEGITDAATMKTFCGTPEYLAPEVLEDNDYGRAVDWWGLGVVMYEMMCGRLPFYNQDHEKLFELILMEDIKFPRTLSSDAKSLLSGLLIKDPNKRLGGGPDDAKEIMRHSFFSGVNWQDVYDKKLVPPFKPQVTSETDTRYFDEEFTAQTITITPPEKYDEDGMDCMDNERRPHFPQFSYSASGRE
Protocol: as §1

[17] = target: STK33 (Homo sapiens, UniProt Q9BYT3); assay: SelectScreen kinase assay
Protocol: as §1

[18] = 1 h, 1 μM WEL028, 1 h preincubation
[19] = 1 h, log[inhibitor] (M) -5.00, LanthaScreen Binding
[20] = 1 h, log[inhibitor] (M) -5.48, LanthaScreen Binding
[21] = 1 h, log[inhibitor] (M) -5.95, LanthaScreen Binding
[22] = 1 h, log[inhibitor] (M) -6.43, LanthaScreen Binding
[23] = 1 h, log[inhibitor] (M) -6.91, LanthaScreen Binding
[24] = 1 h, log[inhibitor] (M) -7.86, LanthaScreen Binding
[25] = IC50 on that kinase divided by IC50 on FES^S700C
[26] = 1 µM, LanthaScreen Binding, listed as WEL028, 1 µM
[27] = read-out: Inhibition at 1 µM (%), 1 µM, LanthaScreen Binding

Chain of MKNK2 (MNK2) (Q9HBH9 whole entry, species assumed): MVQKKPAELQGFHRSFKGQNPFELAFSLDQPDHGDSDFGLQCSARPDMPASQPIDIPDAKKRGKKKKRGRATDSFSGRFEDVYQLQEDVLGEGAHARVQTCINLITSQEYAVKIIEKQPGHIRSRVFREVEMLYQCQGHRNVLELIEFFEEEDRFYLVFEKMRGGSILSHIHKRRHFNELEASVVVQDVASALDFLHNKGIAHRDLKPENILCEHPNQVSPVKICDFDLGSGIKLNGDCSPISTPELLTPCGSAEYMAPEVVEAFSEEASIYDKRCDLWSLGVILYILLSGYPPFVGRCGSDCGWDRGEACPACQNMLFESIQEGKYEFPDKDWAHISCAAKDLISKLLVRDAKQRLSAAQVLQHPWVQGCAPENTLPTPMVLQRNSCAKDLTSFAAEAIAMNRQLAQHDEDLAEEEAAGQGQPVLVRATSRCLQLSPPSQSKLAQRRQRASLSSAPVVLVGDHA

## C#CCOc1ccc(Nc2ncc(Cl)c(Nc3ccccc3NC(=O)C=C)n2)c(OC)c1 [Compound 6]
[1]
  pIC50: 7.00
[1]; [18]
  inhibition at 1 µM: 93%
[1]; [19]
  inhibition at 10 µM: 83%
[1]; [20]
  inhibition at 3.311 µM: 97%
[1]; [21]
  inhibition at 1.122 µM: 94%
[1]; [22]
  inhibition at 0.3715 µM: 82%
[1]; [23]
  inhibition at 0.123 µM: 54%
[1]; [24]
  inhibition at 0.0138 µM: 13%
[1]; 1 h, log[inhibitor] (M) -9.31, LanthaScreen Binding
  inhibition at 0.0004898 µM: 4%
[1]; [25]
  Apparent fold selectivity: 23 fold
[1]; MKNK2 (MNK2), 1 µM, LanthaScreen Binding, listed as WEL028, 1 µM
  Inhibition at 1 µM (%): 96%
[1]; read-out: Inhibition at 1 µM (%), MKNK2 (MNK2), 1 µM, LanthaScreen Binding
  inhibition at 1 µM: 89%
[2]
  Apparent fold selectivity: 718 fold
[3]
  pIC50: 5.50
[3]; [18]
  inhibition at 1 µM: 61%
[3]; FLT3, 1 µM, ZLYTE, ATP Km app, listed as WEL028, 1 µM
  Inhibition at 1 µM (%): 58%
[3]; read-out: Inhibition at 1 µM (%), FLT3, 1 µM, ZLYTE, ATP Km app
  inhibition at 1 µM: 64%
[4]; 1 h
  inhibition at 1 µM: -1%
[4]; read-out: Inhibition at 1 µM (%)
  inhibition at 1 µM: -1%
[5]; [18]
  inhibition at 1 µM: 0%
[5]; EPHB1, 1 µM, ZLYTE, ATP Km app, listed as WEL028, 1 µM
  Inhibition at 1 µM (%): -1% and 1%
[6]; [18]
  inhibition at 1 µM: 11%
[6]; PIK3C3 (hVPS34), 1 µM, Adapta, ATP Km app, listed as WEL028, 1 µM
  Inhibition at 1 µM (%): 12%
[6]; read-out: Inhibition at 1 µM (%), PIK3C3 (hVPS34), 1 µM, Adapta, ATP Km app
  inhibition at 1 µM: 11%
[7]; living HEK293T cells
  Cell permeability: cell-permeable
  Concentration sufficient to fully block labeling of FES^S700C: 100 nM
[7]; transfected HEK293T cells treated with WEL028, click chemistry, n = 3, read-out: pIC50, labeling of FES^S700C in live cells (converted)
  IC50: 25.1 nM
[8]
  pIC50: 6.20
[8]; [18]
  inhibition at 1 µM: 74%
[8]; 1 h, log[inhibitor] (M) -5.00, ZLYTE, ATP Km app
  inhibition at 10 µM: 100%
[8]; 1 h, log[inhibitor] (M) -5.48, ZLYTE, ATP Km app
  inhibition at 3.31 µM: 90%
[8]; 1 h, log[inhibitor] (M) -5.95, ZLYTE, ATP Km app
  inhibition at 1.12 µM: 69%
[8]; 1 h, log[inhibitor] (M) -6.43, ZLYTE, ATP Km app
  inhibition at 0.372 µM: 46%
[8]; 1 h, log[inhibitor] (M) -6.91, ZLYTE, ATP Km app
  inhibition at 0.123 µM: 28%
[8]; 1 h, log[inhibitor] (M) -7.39, ZLYTE, ATP Km app
  inhibition at 0.04074 µM: 16%
[8]; 1 h, log[inhibitor] (M) -7.86, ZLYTE, ATP Km app
  inhibition at 0.0138 µM: 8%
[8]; 1 h, log[inhibitor] (M) -[…], ZLYTE, ATP Km app
  inhibition at 0.004571 µM: 3%
[8]; AURKA (Aurora A), 1 µM, ZLYTE, ATP Km app, listed as WEL028, 1 µM
  Inhibition at 1 µM (%): 70%
[8]; [25]
  Apparent fold selectivity: 155 fold
[8]; read-out: Inhibition at 1 µM (%), AURKA (Aurora A), 1 µM, ZLYTE, ATP Km app
  inhibition at 1 µM: 78%
[9]; [18]
  inhibition at 1 µM: -11%
[9]; MAP3K9 (MLK1), 1 µM, ZLYTE, ATP Km app
  Inhibition at 1 µM (%): -21%
[10]
  inhibition at 1 µM: 6%
[11]; [18]
  inhibition at 1 µM: 5%
[11]; ACVR2A, 1 µM, LanthaScreen Binding, listed as WEL028, 1 µM
  Inhibition at 1 µM (%): 6%
[11]; read-out: Inhibition at 1 µM (%), ACVR2A, 1 µM, LanthaScreen Binding
  inhibition at 1 µM: 4%
[12]; [18]
  inhibition at 1 µM: 2%
[12]; read-out: Inhibition at 1 µM (%), NIM1K, 1 µM, ZLYTE, ATP Km app
  inhibition at 1 µM: 3%
[13]; [18]
  inhibition at 1 µM: 13%
[13]; MAP3K7/MAP3K7IP1 (TAK1-TAB1), 1 µM, LanthaScreen Binding, listed as WEL028, 1 µM
  Inhibition at 1 µM (%): 15%
[13]; read-out: Inhibition at 1 µM (%), MAP3K7/MAP3K7IP1 (TAK1-TAB1), 1 µM, LanthaScreen Binding
  inhibition at 1 µM: 11%
[14]; 1 μM WEL028, 1 h preincubation
  Inhibition (%): 5%
[14]; [26]
  Inhibition at 1 µM (%): 5%
[14]; [27]
  inhibition at 1 µM: 4%
[15]; 1 μM WEL028, 1 h preincubation
  Inhibition (%): 7%
[15]; MAPK14 (p38 alpha) Direct, 1 µM, ZLYTE, ATP Km app, listed as WEL028, 1 µM
  Inhibition at 1 µM (%): 4% and 10%
[16]; [18]
  inhibition at 1 µM: 1%
[16]
  Inhibition at 1 µM (%): 3%
[16]; listed as WEL028, 1 µM
  Inhibition at 1 µM (%): 0%
[17]
  pIC50: 6.00
[17]; [26]
  Inhibition at 1 µM (%): 61%
[17]; [18]
  inhibition at 1 µM: 60%
[17]; [19]
  inhibition at 10 µM: 33%
[17]; [20]
  inhibition at 3.311 µM: 58%
[17]; [21]
  inhibition at 1.122 µM: 69%
[17]; [22]
  inhibition at 0.3715 µM: 43%
[17]; [23]
  inhibition at 0.123 µM: 23%
[17]; 1 h, log[inhibitor] (M) -7.39, LanthaScreen Binding
  inhibition at 0.04074 µM: 19%
[17]; [24]
  inhibition at 0.0138 µM: 6%
[17]; 1 h, log[inhibitor] (M) -[…], LanthaScreen Binding
  inhibition at 0.004571 µM: 7%
[17]; [25]
  Apparent fold selectivity: 254 fold
[17]; [27]
  inhibition at 1 µM: 59%
